Results as given in article PMC9127750, “Structure-based design of CDC42 effector interaction inhibitors for the treatment of cancer” (Cell reports, 2022).
Values joined by “and” are separate entries in the source; they are usually repeats but may differ in a detail not shown here. Identical values can stand only once.

System: WM3248 melanoma cells, 486 antibodies
Test: Reverse phase protein arrays (RPPA)
Format: cell-based, Human
Settings: normalized to 0
Source text: Pellets were snap frozen in liquid nitrogen and shipped to MD Anderson Cancer Center core RPPA facility for RPPA analysis (Table S5). Three biological replicates for each sample were generated.
Nomenclatures on the RPPA heatmaps: name_of_antibody.species_of_antibody.status_of_antibody. V - antibody validated; C - validation of antibody in progress; Q - antibody nonspecific; E – under evaluation; antibodies raised in M - mouse, G - goat, R - rabbit, or T - rat.

## CN(C)c1cccc(Nc2cc(-c3ccccc3)nc(C3CCNCC3)n2)c1 [ARN22089, N1,N1-dimethyl-N3-(6-phenyl-2-(piperidin-4-yl)pyrimidin-4-yl)benzene-1,3-diamine]
10, replicates 1-3
  GSK.3B.R.C Norm_10: 0.867 and 0.924 and 0.907
  GSK.3a.b.M.V Norm_10: 0.998 and 1.049
  GSK.3a.b_pS21_S9.R.V Norm_10: 1.903 and 0.801
  Gab2.R.V Norm_10: 1.165 and 1.098 and 0.933
  Gli1.R.C Norm_10: 0.913 and 0.965 and 1.136
  Gli3.R.C Norm_10: 1.151 and 1.082 and 1.169
  Glucocorticoid.Receptor.R.V Norm_10: 1.159 and 1.201 and 0.996
  Glutamate.D1.2.R.V Norm_10: 0.997 and 1.319 and 1.150
  Glutaminase.R.C Norm_10: 0.936 and 1.126 and 1.162
  Granzyme.B.R.V Norm_10: 1.207 and 0.777 and 0.921
  Grp75.R.C Norm_10: 1.100 and 1.356 and 0.930
  Gys.R.V Norm_10: 0.972 and 0.858 and 0.963
  Gys_pS641.R.V Norm_10: 0.959 and 0.885
  H2AX_pS139.R.C Norm_10: 0.952 and 0.894
  H2AX_pS140.M.C Norm_10: 0.944 and 1.316 and 1.153
  HER2.M.V Norm_10: 1.003 and 1.056
  HER2_pY1248.R.V Norm_10: 0.907 and 0.828 and 1.009
  HER3.R.V Norm_10: 0.945 and 1.026 and 0.936
  HER3_pY1289.R.C Norm_10: 1.083 and 1.014
  HES1.R.V Norm_10: 1.156 and 0.918 and 0.849
  Heregulin.R.V Norm_10: 0.988 and 0.972 and 0.854
  eEF2.R.C Norm_10: 1.541 and 1.276 and 1.659
  eEF2K.R.V Norm_10: 1.101 and 1.387 and 1.115
  eIF4E.R.V Norm_10: 1.636 and 0.500 and 0.846
  eIF4E_pS209.R.V Norm_10: 0.984 and 0.803
  eIF4G.R.C Norm_10: 0.963
20, average
  DRP1.R.V Norm_20 Average: 0.964
  DUSP4.R.V Norm_20 Average: 0.723
  DUSP6.R.C Norm_20 Average: 1.555
  Dvl3.R.V Norm_20 Average: 1.031
  E2F1.R.V Norm_20 Average: 1.247
  E.Cadherin.R.V Norm_20 Average: 0.854
  EGFR.R.V Norm_20 Average: 1.132
  EGFR_pY1068.R.C Norm_20 Average: 0.914
  EGFR_pY1173.R.V Norm_20 Average: 1.048
  EMA.M.C Norm_20 Average: 0.783
  ENY2.M.C Norm_20 Average: 0.952
  ER.a.R.V Norm_20 Average: 0.959
  ER.a_pS118.R.V Norm_20 Average: 1.311
  ERCC5.R.C Norm_20 Average: 1.110
  ERRalpha.R.V Norm_20 Average: 0.963
  EVI1.R.V Norm_20 Average: 0.976
  Elk1_pS383.R.C Norm_20 Average: 1.105
  Enolase.2.R.V Norm_20 Average: 0.948
  EphA2.R.V Norm_20 Average: 0.748
  EphA2_pS897.R.C Norm_20 Average: 0.630
  EphA2_pY588.R.C Norm_20 Average: 0.974
  Erk5.R.V Norm_20 Average: 0.917
  Ets.1.R.V Norm_20 Average: 1.379
  FABP5.R.C Norm_20 Average: 1.251
  FAK.R.C Norm_20 Average: 0.978
  FAK_pY397.R.V Norm_20 Average: 0.925
  FANCD2.R.V Norm_20 Average: 0.851
  FASN.R.V Norm_20 Average: 0.957
  FGF.basic.R.C Norm_20 Average: 1.005
  FN14.R.C Norm_20 Average: 1.106
  FOXM1.R.V Norm_20 Average: 0.936
  FRS2.alpha_pY196.R.V Norm_20 Average: 1.059
  FTO.R.V Norm_20 Average: 1.058
  Fibronectin.R.V Norm_20 Average: 1.193
  FoxO3a_pS318_S321.R.C Norm_20 Average: 1.005
  G6PD.R.V Norm_20 Average: 0.954
  GATA3.M.V Norm_20 Average: 1.318
  GATA6.R.V Norm_20 Average: 0.955
  GCLC.R.C Norm_20 Average: 1.023
  GCLM.R.V Norm_20 Average: 0.992
  GCN5L2.R.V Norm_20 Average: 0.995
  GGPS1.M.V Norm_20 Average: 1.022
  GRB2.R.V Norm_20 Average: 0.934
  GRB7.R.V Norm_20 Average: 0.995
  GSK.3B.R.C Norm_20 Average: 0.882
  GSK.3a.b.M.V Norm_20 Average: 0.925
  GSK.3a.b_pS21_S9.R.V Norm_20 Average: 1.221
  Gab2.R.V Norm_20 Average: 1.169
  Gli3.R.C Norm_20 Average: 1.301
  Glucocorticoid.Receptor.R.V Norm_20 Average: 1.170
  Glutamate.D1.2.R.V Norm_20 Average: 1.186
  Grp75.R.C Norm_20 Average: 1.195
  Gys_pS641.R.V Norm_20 Average: 0.856
  H2AX_pS139.R.C Norm_20 Average: 1.433
  H2AX_pS140.M.C Norm_20 Average: 1.232
